According to ChEMBL document CHEMBL5661982 (Mol Cancer Ther, 2012):
Calls of active or inactive are those of the source. The rule behind the calls is not given here.

Assays:
U-87 MG [1] = experiment: Antitumor activity against human U-87 MG cells xenografted in athymic nu/nu mouse assessed as tumor growth inhibition at 0.3 mg/kg, po for 9 days relative to control; conditions: 216 h, read-out: TGI
GTL 16 cell line [2] = experiment: Antitumor activity against human GTL 16 cells xenografted in athymic nu/nu mouse assessed as tumor growth inhibition at 15 mg/kg, sc minipump administered for 14 days relative to control; conditions: GTL 16, 336 h, read-out: TGI
GTL 16 cell line [3] = experiment: Antitumor activity against human GTL 16 cells xenografted in athymic nu/nu mouse assessed as tumor growth inhibition at 5 mg/kg, sc minipump administered for 14 days relative to control; conditions: GTL 16, 336 h, read-out: TGI
NCI-H292 = experiment: Antitumor activity against human NCI-H292 cells xenografted in athymic nu/nu mouse assessed as tumor growth inhibition at 50 mg/kg/day, po for 31 days relative to control; conditions: 744 h, read-out: TGI
SW-620 [4] = experiment: Antiproliferative activity against human SW620 cells over expressing c-Met assessed as reduction in cell viability after 48 to 72 hrs by MTT assay
GTL 16 cell line [5] = experiment: Antitumor activity against human GTL 16 cells xenografted in athymic nu/nu mouse assessed as tumor growth inhibition at 1.5 mg/kg, sc minipump administered for 14 days relative to control; conditions: GTL 16, 336 h, read-out: TGI
HUVEC = experiment: Antiproliferative activity against HGF-stimulated HUVEC cells assessed as reduction in cell viability after 48 to 72 hrs by MTT assay; conditions: Homo sapiens
HT-29 = experiment: Inhibition of cell invasion in HGF-stimulated human HT-29 cells over expressing c-Met incubated for 48 hrs by Matrigel based analysis; conditions: HT-29, 48 h
U-87MG ATCC [6] = conditions: Homo sapiens, dose 5-50 mg/kg, route po, time 3.0 day
[7] = target: Hepatocyte growth factor receptor (Mus musculus, UniProt P16056); experiment: Inhibition of c-Met phosphorylation in HGF-stimulated mIMCD3 cells incubated for 1 hr by sandwich ELISA analysis
Hepatocyte growth factor receptor (Mus musculus, UniProt P16056), sequence (P16056 whole entry): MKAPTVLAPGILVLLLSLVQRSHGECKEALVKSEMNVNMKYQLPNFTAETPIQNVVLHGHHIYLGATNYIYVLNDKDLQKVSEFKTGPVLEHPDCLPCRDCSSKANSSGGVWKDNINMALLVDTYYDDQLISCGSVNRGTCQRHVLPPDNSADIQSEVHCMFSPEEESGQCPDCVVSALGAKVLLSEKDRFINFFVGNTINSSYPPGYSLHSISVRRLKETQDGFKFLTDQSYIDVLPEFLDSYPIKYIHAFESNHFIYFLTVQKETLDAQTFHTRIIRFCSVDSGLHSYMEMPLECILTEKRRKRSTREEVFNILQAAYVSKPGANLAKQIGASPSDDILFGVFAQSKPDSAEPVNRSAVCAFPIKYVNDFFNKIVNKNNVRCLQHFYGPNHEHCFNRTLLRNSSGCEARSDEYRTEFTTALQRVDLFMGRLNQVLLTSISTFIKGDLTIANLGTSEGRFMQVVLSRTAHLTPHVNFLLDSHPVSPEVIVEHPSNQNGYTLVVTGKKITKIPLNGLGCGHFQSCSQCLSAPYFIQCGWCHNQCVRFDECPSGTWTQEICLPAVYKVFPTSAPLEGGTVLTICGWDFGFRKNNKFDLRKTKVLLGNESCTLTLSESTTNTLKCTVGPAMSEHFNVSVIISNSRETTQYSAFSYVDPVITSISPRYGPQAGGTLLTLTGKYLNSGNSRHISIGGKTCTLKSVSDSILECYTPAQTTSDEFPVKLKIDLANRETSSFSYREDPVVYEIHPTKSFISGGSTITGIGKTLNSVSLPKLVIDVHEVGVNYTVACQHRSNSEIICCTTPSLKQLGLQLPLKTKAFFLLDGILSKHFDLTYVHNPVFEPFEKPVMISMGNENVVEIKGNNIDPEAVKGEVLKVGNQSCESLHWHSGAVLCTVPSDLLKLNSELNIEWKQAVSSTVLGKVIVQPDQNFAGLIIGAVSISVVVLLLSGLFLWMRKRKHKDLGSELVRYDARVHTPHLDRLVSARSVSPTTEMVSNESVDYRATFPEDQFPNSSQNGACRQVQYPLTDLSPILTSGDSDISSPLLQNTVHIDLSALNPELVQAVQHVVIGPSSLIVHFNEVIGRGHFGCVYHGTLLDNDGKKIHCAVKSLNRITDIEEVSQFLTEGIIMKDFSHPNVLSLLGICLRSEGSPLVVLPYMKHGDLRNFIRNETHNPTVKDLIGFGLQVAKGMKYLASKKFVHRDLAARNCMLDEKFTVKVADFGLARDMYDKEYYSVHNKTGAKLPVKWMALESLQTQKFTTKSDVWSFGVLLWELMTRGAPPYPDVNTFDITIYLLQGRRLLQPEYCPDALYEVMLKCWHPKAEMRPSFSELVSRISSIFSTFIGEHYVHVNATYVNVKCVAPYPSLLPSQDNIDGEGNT

PC-3 = experiment: Antiproliferative activity against human PC-3 cells over expressing c-Met assessed as reduction in cell viability after 48 to 72 hrs by MTT assay
[8] = target: Insulin-like growth factor 1 receptor (Mus musculus, UniProt Q60751); experiment: Inhibition of IGF1R expressed in mouse NIH3T3 cells assessed as reduction in IGF-stimulated IGF1R phosphorylation incubated for 1 hr by sandwich ELISA analysis
Insulin-like growth factor 1 receptor, sequence (Q60751 31-737 limits assumed): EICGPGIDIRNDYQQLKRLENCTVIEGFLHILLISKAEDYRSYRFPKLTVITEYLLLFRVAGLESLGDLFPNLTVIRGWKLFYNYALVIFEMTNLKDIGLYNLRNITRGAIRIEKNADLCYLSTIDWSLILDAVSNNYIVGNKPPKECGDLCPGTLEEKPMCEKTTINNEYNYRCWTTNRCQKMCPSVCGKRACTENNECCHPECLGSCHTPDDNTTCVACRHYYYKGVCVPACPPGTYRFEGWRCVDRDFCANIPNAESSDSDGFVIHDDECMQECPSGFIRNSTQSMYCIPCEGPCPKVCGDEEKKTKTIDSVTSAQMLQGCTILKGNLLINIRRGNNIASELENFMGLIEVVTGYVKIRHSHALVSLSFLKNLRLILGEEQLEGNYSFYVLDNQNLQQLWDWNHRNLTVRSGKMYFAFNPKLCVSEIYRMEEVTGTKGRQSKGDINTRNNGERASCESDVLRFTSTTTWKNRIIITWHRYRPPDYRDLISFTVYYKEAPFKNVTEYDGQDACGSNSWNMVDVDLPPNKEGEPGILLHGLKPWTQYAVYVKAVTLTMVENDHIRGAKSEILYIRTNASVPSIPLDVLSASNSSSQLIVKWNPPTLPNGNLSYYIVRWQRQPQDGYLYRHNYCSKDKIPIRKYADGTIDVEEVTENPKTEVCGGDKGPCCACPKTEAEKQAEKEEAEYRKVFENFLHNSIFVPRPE
Insulin-like growth factor 1 receptor, sequence (Q60751 742-1373 limits assumed): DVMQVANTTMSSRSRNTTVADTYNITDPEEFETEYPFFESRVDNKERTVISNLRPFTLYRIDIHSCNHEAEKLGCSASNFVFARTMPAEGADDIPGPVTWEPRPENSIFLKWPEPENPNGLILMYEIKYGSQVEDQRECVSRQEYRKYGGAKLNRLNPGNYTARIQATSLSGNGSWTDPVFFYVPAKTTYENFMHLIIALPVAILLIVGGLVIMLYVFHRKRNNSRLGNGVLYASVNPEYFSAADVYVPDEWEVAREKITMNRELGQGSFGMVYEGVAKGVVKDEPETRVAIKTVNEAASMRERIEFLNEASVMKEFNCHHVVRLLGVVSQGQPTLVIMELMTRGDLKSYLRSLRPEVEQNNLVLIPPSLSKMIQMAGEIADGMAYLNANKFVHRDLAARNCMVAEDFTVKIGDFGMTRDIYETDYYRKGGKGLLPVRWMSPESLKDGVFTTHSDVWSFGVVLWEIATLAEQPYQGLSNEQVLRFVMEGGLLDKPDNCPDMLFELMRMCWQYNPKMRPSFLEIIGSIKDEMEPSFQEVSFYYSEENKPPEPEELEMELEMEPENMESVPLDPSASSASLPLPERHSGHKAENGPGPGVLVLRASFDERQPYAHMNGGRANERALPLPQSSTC

SW-620 [9] = experiment: Antitumor activity against human SW620 cells xenografted in athymic nu/nu mouse assessed as tumor growth inhibition at 40 mg/kg/day, po for 25 days relative to control; conditions: SW-620, po, 600 h, read-out: TGI
NCI-H1993 = experiment: Antiproliferative activity against human NCI-H1993 cells over expressing c-Met assessed as reduction in cell viability after 48 to 72 hrs by MTT assay
GTL 16 cell line [10] = experiment: animal or person; conditions: Mus musculus, GTL 16, po, 384 h, read-out: TGI
Description: Antitumor activity against human GTL 16 cells xenografted in athymic nu/nu mouse assessed as tumor growth inhibition at 30 mg/kg, po administered for 16 days relative to control

[11] = target: Tyrosine-protein kinase receptor UFO (Homo sapiens, UniProt P30530); experiment: Inhibition of AXL expressed in HEK293 cells assessed as reduction in Gas6-stimulated AXL phosphorylation incubated for 1 hr by sandwich ELISA analysis
Tyrosine-protein kinase receptor UFO, sequence (P30530 whole entry): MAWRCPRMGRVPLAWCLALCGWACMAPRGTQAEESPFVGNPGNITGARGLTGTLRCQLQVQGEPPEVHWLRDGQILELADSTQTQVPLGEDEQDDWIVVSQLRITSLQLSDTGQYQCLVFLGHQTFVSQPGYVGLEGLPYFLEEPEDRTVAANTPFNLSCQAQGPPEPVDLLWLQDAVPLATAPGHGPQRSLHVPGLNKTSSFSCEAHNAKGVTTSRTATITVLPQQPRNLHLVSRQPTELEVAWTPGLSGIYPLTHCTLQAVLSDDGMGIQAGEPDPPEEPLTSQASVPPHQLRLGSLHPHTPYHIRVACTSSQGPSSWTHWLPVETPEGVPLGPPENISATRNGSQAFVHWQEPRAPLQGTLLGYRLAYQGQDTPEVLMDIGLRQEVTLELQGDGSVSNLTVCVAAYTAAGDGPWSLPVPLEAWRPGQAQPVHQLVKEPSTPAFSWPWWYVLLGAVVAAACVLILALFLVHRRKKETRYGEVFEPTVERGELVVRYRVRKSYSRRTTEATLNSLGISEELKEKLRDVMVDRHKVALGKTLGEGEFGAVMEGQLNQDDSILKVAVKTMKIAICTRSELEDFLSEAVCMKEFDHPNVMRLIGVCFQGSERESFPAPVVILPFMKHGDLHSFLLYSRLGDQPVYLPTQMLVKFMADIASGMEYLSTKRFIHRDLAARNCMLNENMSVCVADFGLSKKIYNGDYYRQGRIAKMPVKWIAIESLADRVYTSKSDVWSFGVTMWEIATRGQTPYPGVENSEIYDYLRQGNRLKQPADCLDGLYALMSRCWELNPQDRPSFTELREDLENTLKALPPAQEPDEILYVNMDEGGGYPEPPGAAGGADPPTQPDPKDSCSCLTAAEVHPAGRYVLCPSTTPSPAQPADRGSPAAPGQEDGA

GTL 16 cell line [12] = experiment: Antitumor activity against human GTL 16 cells xenografted in athymic nu/nu mouse assessed as tumor growth inhibition at 1 mg/kg, po administered for 16 days relative to control; conditions: GTL 16, po, 384 h, read-out: TGI
GTL 16 [13] = conditions: Homo sapiens, dose 3-30 mg/kg, route po, time 4.0 day
GTL 16 cell line [14] = experiment: Antitumor activity against human GTL 16 cells xenografted in athymic nu/nu mouse assessed as tumor growth inhibition at 3 mg/kg, po administered for 16 days relative to control; conditions: GTL 16, po, 384 h, read-out: TGI
U-87 MG [15] = experiment: Antitumor activity against human U-87 MG cells xenografted in athymic nu/nu mouse assessed as tumor growth inhibition at 10 mg/kg, po for 9 days relative to control; conditions: 216 h, read-out: TGI
U-87MG ATCC [16] = conditions: Homo sapiens, dose 5-50 mg/kg, route po, time 3.0 day; remark: listed apart in the source
U-87MG ATCC [17] = conditions: Homo sapiens, dose 5-50 mg/kg, route po, time 3.0 day; remark: listed apart in the source
U-87 MG [18] = experiment: Antitumor activity against human U-87 MG cells xenografted in athymic nu/nu mouse assessed as tumor growth inhibition at 1 mg/kg, po for 9 days relative to control; conditions: 216 h, read-out: TGI
[19] = target: Hepatocyte growth factor receptor (Canis lupus familiaris, UniProt Q75ZY9); experiment: Inhibition of c-Met phosphorylation in HGF-stimulated dog MDCK cells incubated for 1 hr by sandwich ELISA analysis
Hepatocyte growth factor receptor (Canis lupus familiaris, UniProt Q75ZY9), sequence (Q75ZY9 whole entry): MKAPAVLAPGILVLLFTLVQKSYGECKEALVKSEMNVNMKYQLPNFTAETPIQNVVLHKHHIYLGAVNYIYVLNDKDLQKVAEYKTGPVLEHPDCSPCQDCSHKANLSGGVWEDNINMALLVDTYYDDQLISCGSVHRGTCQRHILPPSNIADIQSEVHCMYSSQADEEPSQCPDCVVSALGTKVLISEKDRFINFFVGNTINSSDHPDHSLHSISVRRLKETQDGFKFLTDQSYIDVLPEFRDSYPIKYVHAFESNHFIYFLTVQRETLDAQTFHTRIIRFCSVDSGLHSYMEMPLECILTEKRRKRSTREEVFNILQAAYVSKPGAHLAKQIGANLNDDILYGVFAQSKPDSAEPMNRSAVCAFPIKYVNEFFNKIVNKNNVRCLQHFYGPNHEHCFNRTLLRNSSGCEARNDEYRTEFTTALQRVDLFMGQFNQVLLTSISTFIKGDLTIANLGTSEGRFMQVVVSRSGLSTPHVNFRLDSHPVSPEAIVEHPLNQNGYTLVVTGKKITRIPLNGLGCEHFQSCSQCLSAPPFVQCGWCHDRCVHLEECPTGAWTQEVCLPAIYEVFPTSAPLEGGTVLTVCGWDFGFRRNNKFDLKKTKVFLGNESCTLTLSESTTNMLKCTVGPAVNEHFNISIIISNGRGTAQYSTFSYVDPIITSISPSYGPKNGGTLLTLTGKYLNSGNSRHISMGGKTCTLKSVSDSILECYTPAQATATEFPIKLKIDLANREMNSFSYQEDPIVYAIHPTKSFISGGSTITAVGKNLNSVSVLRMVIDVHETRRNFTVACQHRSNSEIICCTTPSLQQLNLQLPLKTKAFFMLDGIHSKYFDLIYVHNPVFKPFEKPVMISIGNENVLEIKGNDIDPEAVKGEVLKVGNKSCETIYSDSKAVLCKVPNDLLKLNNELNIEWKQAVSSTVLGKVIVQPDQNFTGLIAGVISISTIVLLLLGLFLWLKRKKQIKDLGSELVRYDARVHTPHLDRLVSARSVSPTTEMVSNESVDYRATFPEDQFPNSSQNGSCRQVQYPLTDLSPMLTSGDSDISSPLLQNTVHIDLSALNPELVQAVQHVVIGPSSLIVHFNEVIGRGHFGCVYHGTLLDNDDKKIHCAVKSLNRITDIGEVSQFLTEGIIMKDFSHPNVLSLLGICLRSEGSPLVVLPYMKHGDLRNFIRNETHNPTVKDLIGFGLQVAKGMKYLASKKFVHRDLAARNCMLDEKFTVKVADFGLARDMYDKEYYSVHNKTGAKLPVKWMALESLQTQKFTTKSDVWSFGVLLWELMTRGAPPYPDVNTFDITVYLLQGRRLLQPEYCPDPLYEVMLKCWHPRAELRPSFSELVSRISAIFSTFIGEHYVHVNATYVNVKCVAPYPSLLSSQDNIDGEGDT

[20] = Inhibition of c-Met R988C mutant phosphorylation in human NCI-H69 cells assessed as reduction in HGF-stimulated c-Met phosphorylation incubated for 1 hr by ELISA analysis; conditions: NCI-H69, 1 h
GTL 16 cell line [21] = experiment: Antiproliferative activity against human GTL 16 cells over expressing c-Met assessed as reduction in cell viability after 48 to 72 hrs by MTT assay
U-87MG ATCC [22] = conditions: Homo sapiens, dose 5-50 mg/kg, route po, time 3.0 day; remark: listed apart in the source
SW-620 [23] = conditions: Homo sapiens, dose 40.0 mg/kg/day, route po, time 25.0 day
HCC1143 = experiment: Antiproliferative activity against human HCC1143 cells over expressing c-Met assessed as reduction in cell viability after 48 to 72 hrs by MTT assay
GTL 16 [24] = conditions: Homo sapiens, dose 0.3-10 mg/kg, route po, time 4.0 day
GTL 16 cell line [25] = experiment: Antitumor activity against human GTL 16 cells xenografted in athymic nu/nu mouse assessed as tumor growth inhibition at 10 mg/kg, po administered for 16 days relative to control; conditions: GTL 16, po, 384 h, read-out: TGI
U-87 MG [26] = experiment: Antitumor activity against human U-87 MG cells xenografted in athymic nu/nu mouse assessed as tumor growth inhibition at 3 mg/kg, po for 9 days relative to control; conditions: 216 h, read-out: TGI
U-87MG ATCC [27] = conditions: Homo sapiens, dose 5-50 mg/kg, route po, time 3.0 day; remark: listed apart in the source

Compound `OCCn1cc(-c2cnc3nnn(Cc4ccc5ncccc5c4)c3n2)cn1` [PF-04217903] has an inhibition in vivo at 0.3 mg/kg (U-87 MG [1]) of 20%, an inhibition in vivo at 15 mg/kg (GTL 16 cell line [2]) of 93% and an inhibition in vivo at 5 mg/kg (GTL 16 cell line [3]) of 75%. The inhibition in vivo at 50 mg/kg/day (NCI-H292) was 39%, the IC50 (SW-620 [4]) was > 10 µM and the inhibition in vivo at 1.5 mg/kg (GTL 16 cell line [5]) was 63%. For the same compound, the IC50 (HUVEC) was 0.0123 µM, the IC50 (HT-29) was 0.007 µM and the inhibition (U-87MG ATCC [6]) was “Active”. The IC50 [7] was 0.0069 µM, the IC50 (PC-3) was > 10 µM and the IC50 [8] was > 10 µM. The inhibition in vivo at 40 mg/kg/day (SW-620 [9]) was 45%, the IC50 (NCI-H1993) was 0.03 µM and the inhibition in vivo at 30 mg/kg (GTL 16 cell line [10]) was 100%. The IC50 [11] was > 10 µM, the inhibition in vivo at 1 mg/kg (GTL 16 cell line [12]) was 64% and the inhibition (GTL 16 [13]) was “Dose-Dependent Effect”. For the same compound, the inhibition in vivo at 3 mg/kg (GTL 16 cell line [14]) was 74%, the inhibition in vivo at 10 mg/kg (U-87 MG [15]) was 68% and the inhibition (U-87MG ATCC [16]) was “Active”. The inhibition (U-87MG ATCC [17]) was “inactive”, the inhibition in vivo at 1 mg/kg (U-87 MG [18]) was 30% and the IC50 [19] was 0.0095 µM. For the same compound, the IC50 [20] was 0.0064 µM, the IC50 (GTL 16 cell line [21]) was 0.012 µM and the inhibition (U-87MG ATCC [22]) was “Active”. The inhibition (SW-620 [23]) was “Active”, the IC50 (HCC1143) was > 10 µM and the inhibition (GTL 16 [24]) was “Dose-Dependent Effect”. For the same compound, the inhibition in vivo at 10 mg/kg (GTL 16 cell line [25]) was 90%, the inhibition in vivo at 3 mg/kg (U-87 MG [26]) was 48% and the inhibition (U-87MG ATCC [27]) was “Active”.
